Test results: US5942641A, “Fluorenone derivatives, process for preparing the same and central or peripheral nerve degeneration repair and protective agent” (Otsuka Pharmaceutical Co., Ltd., priority 1993, dated 1999)

Tests used:
[1] = system: Nerve cells of the cerebral cortex; assay: Pharmacological test 1: neurite sprouting (NS) of cultured fetal rat cerebral cortex nerve cells, phase contrast microscopy versus control; assay type: cell-based; design: key: ++: extremely strong in comparison with the control; +: strong in comparison with the control; ±: same as the control; -: inferior to the control; conditions: 10 days after initiation of culture
From the text: Nerve cells of the cerebral cortex were removed aseptically from a fetal rat (17 days-old) and cultured according to a Asou's method [Asou, H. Brain Res., 332; pages 355-357 (1985)]. After the meninx, blood vessel, etc. were removed from the cerebral hemisphere, they were put through a stainless steel mesh (pore size: 140μm). Then, the isolated cells were floated on a culture medium (Eagle's basal medium containing 10% fetal bovine serum and glucose of 1 g/l) and 1.5×10^6 cells were respectively seeded on a dish (diameter: 35 mm) coated with poly-L-lysine to initiate the culture (37° C., 3% CO2). After 24 hours, the culture medium was replaced by a culture medium containing a test compound and cultured for additional 9 days.
10 Days after initiation of the culture, neurite sprouting (NS) was evaluated under phase contrast microscopy by comparing with the control group.

[2] = system: mouse dorsal root ganglion cells; assay: Pharmacological Test 2: neurite outgrowth in primary culture of mouse dorsal root ganglion cells; assay type: cell-based, mouse (C57BL/6); design: key: +: positive; ±: false positive; -: negative; conditions: 7 days culture
Method: (The measurement of neurite outgrowth in primary culture of mouse dorsal root ganglion cells)
Preparation of cells was conducted according to a method of Horie et al. [H. Horie., FEBS, 296, 23 (1990)]. That is, C57BL/6 male mice aged 10 to 15 weeks were used. They were bleeded to death under ether anesthetization and the backbone from cervical vertebra to sacral vertebra was removed. The capsule of dorsal root ganglion of which ventral root and dorsal root had been cut was stripped in a Ham F12 medium (Flow laboratories) and then ganglia were treated with 0.25% collagenase (Worthington Biochemical Corporation) at 37° C. for 90 minutes. The medium was replaced by a Hank's physiological buffer solution containing no calcium and magnesium and cells were treated with 0.25% trypsin (Flow Laboratories) at room temperature for 20 minutes. A trypsin inhibitor (Sigma, 100 μg/ml) was added to terminate the enzyme reaction and trituration was conducted 20 times using a tapered Pasteur pipette. The medium was replaced again by the Ham F12 medium and cells were put through a nylon mesh (150 μm) to remove a cell mass which had not been separated. Cells were suspended in the Ham F12 medium containing a N1 additive [Bottenstein, J. E., Exp. Cell. Res., 125, 183 (1980)] (kanamycin of 60 μg/ml added).
A poly-1-lysine-coating cell disc as a culture medium which had been subjected to 10 μg/ml laminin (Koken Cell Gen) coating treatment at 37° C. for 3 hours was placed on a 24 well dish and nerve cells (5000 to 10000 cells/dish) were seeded. The test compound (concentration: 0.01 mol/l) was dissolved in dimethyl sulfoxide and diluted with a phosphate buffer solution to adjust to a final concentration, and then added to a culture solution. Cells were cultured in 5% CO2 -95% air phase at 37° C. for 7 days.
For the measurement of neurite outgrowth, the cell disc was washed with a phosphate buffer solution 7 days after initiation of the culture and immobilized with 4% paraformaldehyde at 4° C. for 24 hours, and then immune staining was conducted with Vecstatin ABC kit (Vector) using a neurofilament antibody (200 kD, manufactured by Boehringer Mannheim GmbH). The periphery of the cell disc was restrictively observed under microscopy, and the amount of neurofilament (whole length per well) was evaluated by comparing with the control well according to the following criteria: positive (+), false positive (±) and negative (-).

C-GMP-PDE (type V) = target: T1, C-GMP-PDE (type V) (Homo sapiens, UniProt O76074); assay: Pharmacological test 4: C-GMP-PDE (type V) inhibition action; assay type: biochemical; conditions: FI fraction from human blood platelet
T1 construct: from tissue; host or cells: human blood platelets (healthy adult), DEAE-cellulose fraction FI
Method: (C-GMP-PDE (type V) inhibition action)
The separation and purification of PDE from a human blood platelet was conducted according to a method of Hidaka et al. [Hidaka, H. and Asano, I., Biochem. Biophys. Acta 429, 485-497 (1976)]. That is, a blood platelet derived from a healthy adult was washed with water, floated with a Tris buffer solution and centrifuged. Then, the supernatant thereof was applied to DEAE-cellulose and separated into three fractions, FI, FII and FIII due to concentration gradient of sodium acetate. By using FI having high affinity to C-GMP, the inhibition action of the test compound was examined. The influence of the drug on PDE was represented by the inhibition ratio to PDE activity in the absence of the drug.

[3] = system: hyperoxidation reaction of lipid (microsome fraction); assay: Pharmacological test 3: antioxidation action, hyperoxidation reaction of lipid due to ascorbic acid induction in liver microsome fraction (TBA value); assay type: biochemical, Wister rat; conditions: 37° C., 15 minutes; 200 μM ascorbic acid, 20 μM ferrous sulfate; read-out: IC50 (antioxidation, 50% inhibition concentration)
Method: (The measurement of antioxidation action)
The antioxidation action was measured using the hyperoxidation reaction of lipid due to ascorbic acid induction [Shimada, O. and Yasuda, H. BBA489, 163-172 (1977)].
Microsome fraction was obtained from a lever of Wister rat by a Kato's method [J. Biochem., 59, 574 (1966)]. This fraction was added to a 60 mM potassium phosphate buffer solution (containing 45 mM potassium chloride, 200 μM ascorbic acid and 20 μM ferrous sulfate) in an amount of 1 mg/ml and the test compound (0.1% dimethyl sulfoxide) was added, and the mixture was incubated at 37° C. for 15 minutes. The same amount of 10% trichloroacetic acid was added and the resultant was centrifuged. A portion of the supernatant was collected and the amount of malondialdehyde due to thiobarbituric acid (TBA value) was measured [Klaassen, C. D. and Plaa, G. L. Biochem. Pharmacol., 18: 2019 (1969)]. The inhibition ratio was calculated by the following formula:
Inhibition ratio={1-(TBA value of specimen)/(TBA value of […]

C=CCc1ccc(O)c2c1C(=O)c1c-2ccc(O)c1CC=C [Example 28]
neurite sprouting (NS) ([1]; Dose 10^-5 (mole)): ++

C=CCc1cc2c(c(CC=C)c1O)C(=O)c1c(O)c(CC=C)cc(CC=C)c1-2 [Example 16]
neurite sprouting (NS) ([1]; Dose 10^-7 (mole)): +

O=C1c2cc(O)ccc2-c2cc(O)ccc21 [Example 40]
neurite sprouting (NS) ([1]; Dose 10^-5 (mole)): ++
Neurite outgrowth action ([2]; Dose 10^-6 (mole)): +

C=CCc1c(O)c(O)c(CC=C)c2c1C(=O)c1ccccc1-2 [Example 21, 1,4-diallyl-2,3-dihydroxyfluorenone]
neurite sprouting (NS) ([1]; Dose 10^-7 (mole)): ++
IC50 (C-GMP-PDE (type V)): 14700 nM
IC50 [3]: 100 nM
Neurite outgrowth action ([2]; Dose 10^-7 (mole)): +

C=CCc1ccc(O)c2c1C(=O)c1ccccc1-2 [Example 61]
neurite sprouting (NS) ([1]; Dose 10^-5 (mole)): ++

C=CCc1cc(SC)c2c(c1O)-c1ccccc1C2=O [Example 64]
Neurite outgrowth action ([2]; Dose 10^-6 (mole)): +

CCCc1cc2c(c(Cl)c1O)C(=O)c1c-2cc(Cl)c(O)c1CCC [Example 54, 3,8-dichloro-1,6-di-n-propyl-2,7-dihydroxyfluorenone]
Neurite outgrowth action ([2]; Dose 10^-7 (mole)): +

C=CCc1cc2c(cc1O)C(=O)c1cccc(O)c1-2 [Example 35]
neurite sprouting (NS) ([1]; Dose 10^-7 (mole)): +

C=CCc1cc2c(cc1O)C(=O)c1c(CC=C)ccc(O)c1-2 [Example 30]
Neurite outgrowth action ([2]; Dose 10^-7 (mole)): +

C=CCc1c(O)ccc2c1C(=O)c1ccc(O)c(CC=C)c1-2 [Example 41]
Neurite outgrowth action ([2]; Dose 10^-7 (mole)): +

C=CCc1cc2c(c(CC=C)c1O)C(=O)c1ccccc1-2 [Example 19]
neurite sprouting (NS) ([1]; Dose 10^-5 (mole)): ++
Neurite outgrowth action ([2]; Dose 10^-7 (mole)): +

O=C1c2ccccc2-c2cc(O)c(O)cc21 [Example 20, 2,3-dihydroxyfluorenone]
Neurite outgrowth action ([2]; Dose 10^-6 (mole)): +

C=CCc1ccc2c(c1O)-c1ccccc1C2=O [Example 62]
neurite sprouting (NS) ([1]; Dose 10^-6 (mole)): ++
Neurite outgrowth action ([2]; Dose 10^-6 (mole)): +

C=CCc1cc2c(cc1O)C(=O)c1c-2ccc(O)c1CC=C [Example 47, 1,6-Diallyl-2,7-dihydroxyfluorenone]
neurite sprouting (NS) ([1]; Dose 10^-6 (mole)): +
IC50 (C-GMP-PDE (type V)): 3400 nM
IC50 [3]: 200 nM
Neurite outgrowth action ([2]; Dose 10^-7 (mole)): +

C=CCc1c(O)ccc2c1C(=O)c1ccccc1-2 [Example 17]
neurite sprouting (NS) ([1]; Dose 10^-5 (mole)): ++
Neurite outgrowth action ([2]; Dose 10^-6 (mole)): +

COc1ccc(SCc2ccc3c(c2O)-c2cc(C)c(O)c(C)c2C3=O)cc1 [Example 141]
Neurite outgrowth action ([2]; Dose 3 × 10^-8 (mole)): +

C=CCc1cc2c(cc1O)C(=O)c1ccc(CC=C)c(O)c1-2 [Example 29]
Neurite outgrowth action ([2]; Dose 10^-7 (mole)): +

Cc1cc2c(c(C)c1O)C(=O)c1ccc(C)c(O)c1-2 [Example 118, 1,3,6-trimethyl-2,5-dihydroxyfluorenone]
Neurite outgrowth action ([2]; Dose 3 × 10^-7 (mole)): +

CCCc1ccc2c(c1O)-c1cc(CN3CCC[C@H]3C(=O)OC)c(O)c(CCC)c1C2=O [Example 132]
Neurite outgrowth action ([2]; Dose 10^-7 (mole)): +

CCCc1cc2c(c(CC(C)OCCOCCO)c1O)C(=O)c1c(CCC)cc(CCC)c(O)c1-2 (stereo not drawn) [Example 143]
Neurite outgrowth action ([2]; Dose 10^-7 (mole)): +

C=CCc1cc2c(cc1OC(C)=O)C(=O)c1c-2ccc(OC(C)=O)c1CC=C [Example 106, 1,6-diallyl-2,7-diacetoxyfluorenone]
Neurite outgrowth action ([2]; Dose 10^-7 (mole)): +

C=CCc1cc(Cl)c2c(c1O)-c1cc(Cl)c(O)c(CC=C)c1C2=O [Example 33]
Neurite outgrowth action ([2]; Dose 10^-7 (mole)): +

O=C1c2cc(O)ccc2-c2c(O)cccc21 [Example 26]
neurite sprouting (NS) ([1]; Dose 10^-7 (mole)): +
Neurite outgrowth action ([2]; Dose 10^-7 (mole)): +

CCCc1ccc2c(c1O)-c1cc(CNc3ncccn3)c(O)c(CCC)c1C2=O [Example 127]
Neurite outgrowth action ([2]; Dose 10^-7 (mole)): +

C=CCc1cc2c(cc1O)C(=O)c1cc(O)c(CC=C)cc1-2 [Example 49]
neurite sprouting (NS) ([1]; Dose 10^-6 (mole)): +
IC50 (C-GMP-PDE (type V)): 2200 nM
IC50 [3]: 2100 nM
Neurite outgrowth action ([2]; Dose 10^-7 (mole)): +

COc1cccc2c1-c1cc(C(C)C)c(O)cc1C2=O [Example 36]
Neurite outgrowth action ([2]; Dose 10^-6 (mole)): +

Cc1cc2c(c(C)c1O)C(=O)c1ccc(CC#N)c(O)c1-2 [Example 144]
Neurite outgrowth action ([2]; Dose 10^-7 (mole)): +

C=CCc1cc2c(cc1O)C(=O)c1c-2ccc(CC=C)c1O [Example 14]
neurite sprouting (NS) ([1]; Dose 10^-7 (mole)): ++

C=CCc1c(O)ccc2c1C(=O)c1c-2ccc(O)c1CC=C [Example 48]
neurite sprouting (NS) ([1]; Dose 10^-6 (mole)): +
Neurite outgrowth action ([2]; Dose 10^-7 (mole)): +

Cc1cc2c(c(C)c1O)C(=O)c1ccc(CSC3CCCCC3)c(O)c1-2 [Example 142]
Neurite outgrowth action ([2]; Dose 3 × 10^-8 (mole)): +

CSc1ccc(O)c2c1C(=O)c1ccccc1-2 [Example 63]
Neurite outgrowth action ([2]; Dose 10^-6 (mole)): +

CCCc1cc2c(c(CCC)c1OC(C)=O)C(=O)c1c(CCC)cc(CCC)c(OC(C)=O)c1-2 [Example 134]
Neurite outgrowth action ([2]; Dose 3 × 10^-8 (mole)): +

CCCc1cc2c(c(CCC)c1O)C(=O)c1c(CCC)cc(CCC)c(O)c1-2 [Example 32]
Neurite outgrowth action ([2]; Dose 3 × 10^-8 (mole)): +

C=CCc1cc2c(c(CC=C)c1O)-c1ccccc1C2=O [Example 60]
neurite sprouting (NS) ([1]; Dose 10^-7 (mole)): +
Neurite outgrowth action ([2]; Dose 10^-6 (mole)): +

C=CCc1cc(Cl)c(O)c2c1C(=O)c1c-2cc(Cl)c(O)c1CC=C [Example 34]
Neurite outgrowth action ([2]; Dose 10^-7 (mole)): +

C=CCc1cc2c(cc1O)C(=O)c1ccccc1-2 [Example 18]
neurite sprouting (NS) ([1]; Dose 10^-5 (mole)): ++
Neurite outgrowth action ([2]; Dose 10^-6 (mole)): +

C=CCc1cc2c(c(CC=C)c1O)C(=O)c1cc(CC=C)c(O)c(CC=C)c1-2 [Example 45]
neurite sprouting (NS) ([1]; Dose 10^-7 (mole)): +
Neurite outgrowth action ([2]; Dose 10^-7 (mole)): +

Cc1cc2c(c(C)c1O)C(=O)c1ccc(CSc3ccccc3)c(O)c1-2 [Example 136]
Neurite outgrowth action ([2]; Dose 3 × 10^-7 (mole)): +

Cc1cc2c(c(C)c1O)C(=O)c1ccc(CNc3ncccn3)c(O)c1-2 [Example 123]
Neurite outgrowth action ([2]; Dose 10^-7 (mole)): +

C=CCc1cc2c(c(CC=C)c1O)C(=O)c1c-2cc(CC=C)c(O)c1CC=C [Example 50]
Neurite outgrowth action ([2]; Dose 10^-7 (mole)): +

CCCc1c(O)c(O)c(CCC)c2c1C(=O)c1ccccc1-2 [Example 22, 1,4-di-n-propyl-2,3-dihydroxyfluorenone]
Neurite outgrowth action ([2]; Dose 10^-7 (mole)): +

CCCc1ccc2c(c1O)-c1cc(CNC(CC(C)C)C(=O)OC)c(O)c(CCC)c1C2=O (stereo not drawn) [Example 131]
Neurite outgrowth action ([2]; Dose 10^-7 (mole)): +

CCCc1cc2c(c(CCC)c1O)C(=O)c1c-2cc(CCC)c(O)c1CCC [Example 53]
Neurite outgrowth action ([2]; Dose 10^-7 (mole)): +

C=CCc1cc(C)c2c(c1O)C(=O)c1ccccc1-2 [Example 11]
neurite sprouting (NS) ([1]; Dose 10^-5 (mole)): +

C=CCc1cc2c(cc1O)-c1cc(CC=C)c(O)cc1C2=O [Example 44]
Neurite outgrowth action ([2]; Dose 10^-7 (mole)): +
